Measured values taken from patent US7579374B2, “Agent for improving bone metabolism” (The Nisshin OilliO Group, Ltd., priority 2001, dated 2009).

Key:
Format in all cases: cell-based, mice
[1] = system: MC3T3-E1 cells; experiment: Cell growth rate of osteoblasts in cell culture system; settings: 10 μM; for Cell Growth Rate: viable cells after 3 days, relative to control defined as 100
Description: (§1) In such a system, the osteoblasts are proliferated and the activity of osteoblasts is increased. Therefore, any influence of a substance on the osteoblast-formation can be evaluated by determining, for instance, the rate of cell proliferation and the alkaline phosphatase (ALP) activity as an activity parameter.
(§2) In this Example, there were examined the effects of the chain isoprenoid fatty acid esters on the differentiation and calcium-accumulation of MC3T3-E1 cells or the osteoblasts derived from the skull-caps of mice. A culture medium was added to a 6-well plate in an amount of 2 mL/well, a desired number of MC3T3-E1 cells was inoculated on the medium and the cells were cultivated in a 10% fatal bovine serum-containing base culture liquid (α-MEM, available from Gibco Company) at 37° C. in an atmosphere of 5% CO2. On the day subsequent to the initiation of the cultivation, the culture medium was replaced with the fresh one and simultaneously a solution containing each test sample (the chain isoprenoid fatty acid esters obtained in Preparation Examples 1 to 9) was admixed with and added to the culture medium in an amount of 10 μM for the determination of the cell growth rate and 2.5 μM for the determination of the alkali phosphatase (ALP) activity and the cultivation was continued. The cells for the cell growth rate determination were recovered after 3 days from the initiation of the cultivation and the number of viable cells was counted to determine the cell growth rate. Regarding the other cells, the medium was replaced with fresh one on 5th day of cultivation, the test sample-containing solution was again added and the alkali phosphatase (ALP) activity was determined after the cultivation over one week.
The cell growth rate was calculated as a value relative to the cell growth rate observed for the control (free of any added test sample), which was defined to be 100.

[2] = system: osteoclasts; experiment: Bone absorption-inhibitory action in cell co-cultivation system (TRACP activity); parameters: key to Judged Efficacy (TRACP, t-test relative to the control): ⊚: The test substance shows a considerable inhibitory effect (p < 0.01); ◯: The test substance shows an inhibitory effect (p < 0.05); Δ: The test substance shows only slight or no inhibitory effect (there is not observed any significant difference); X: The test substance shows a bone absorption-promoting effect (there is observed a negativesignificant difference); settings: 10 μM test substance; for Judged Efficacy (TRACP, t-test relative to the control): 2 weeks; for TRACP Act.: co-culture 2 weeks with 10 nM Calcitriol and 100 nM Dexamethasone, control 102.8 ± 12.6
Description: The cell co-culture system used herein means a system in which osteoblasts and hematopoietic cells are subjected to co-culture in the presence of a factor for promoting the formation of osteoclasts and which thus easily permits the analysis of the differentiation process of the osteoclasts (Endocrinology, 1988, 123: 2600-2602). In such a system, osteoclasts are formed and therefore, the degree of osteoclast-formation can be evaluated by the determination of a tartaric acid-resistant acid phosphatase (TRACP) activity in the cell layer as the parameter indicative of the osteoclast.
The test for the confirmation of the bone absorption-inhibitory action of the isoprenoid ester was carried out according to the method disclosed in the literature (Endocrinology, 1988, 123: 2600). The method will be outlined below:
Stroma cells collected from the skull-caps of two-week-old mice according to the method disclosed in the literature (Endocrinology, 1988, 123: 2600) were dispersed in a 10% fetal bovine serum-containing culture base liquid (α-MEM; available from Gibco Company) to a cell density of 5×10^4 cells/mL.
Spleen cells collected from the spleen of 6-week-old ddy male mice according to the method disclosed in the literature (Proc. Natl. Acad. Sci. USA, 1983, 80: 5583) were dispersed in a 10% fetal bovine serum-containing culture base liquid (α-MEM; available from Gibco Company) to a cell density of 5×10^5 cells/mL.
The co-cultivation was carried out in a 5% CO2-containing atmosphere at a temperature of 37° C. using a 10% FBS (fetal bovine serum)-containing culture base liquid (α-MEM; available from Gibco Company). Osteoblast cells were inoculated on a 24-well petri dish at a cell density of 5×10^4 cells/mL/well, spleen cells were then inoculated thereon at a cell density of 5×10^5 cells/mL/well after one day and a solution of a test substance, which had been dissolved in DMSO in a concentration of 10^-2M, was then added to each well in such a manner that the concentration of the test substance was equal to 10 μM. These cells were cultivated in the presence of 10 nM Calcitriol and 100 nM Dexamethasone over 2 weeks while defining the day on which the spleen cells were inoculated as 0th day. In this respect, the culture medium was replaced with fresh one twice a week. After two weeks, the activity of the tartrate-resistant acid phosphatase (hereunder referred to as “TRACP”) in the cell layer was determined, which served as a parameter indicating the number of osteoclasts in the layer.
In the determination of the TRACP activity, there was used a kit of acid phosphatase KII-WAKO (available from WAKO Pure Chemical Co., Ltd.). The culture medium was removed from the Petri dish, 500 μL each of a substrate was added to each well, the resulting cell suspension was heated at 37° C. for 15 minutes, followed by the addition of 500 μL each of a color developing liquid and the determination of the absorbance at a wavelength of 570 nm. The TRACP activity corresponding to each absorbance thus measured was determined using a calibration curve prepared in advance.

[3] = system: MC3T3-E1 cells; experiment: Alkaline phosphatase (ALP) activity of osteoblasts in cell culture system; parameters: key to Judged Efficacy (ALP, t-test relative to the control): ⊚: The test substance shows a considerable inhibitory effect (p < 0.01); ◯: The test substance shows an inhibitory effect (p < 0.05); Δ: The test substance shows only slight or no inhibitory effect (there is not observed any significant difference); X: The test substance shows a bone absorption-promoting effect (there is observed a negativesignificant difference); settings: 2.5 μM; for ALP Act.: cultivation over one week, control 71.6 ± 4.6; for Judged Efficacy (ALP, t-test relative to the control): one week
Description: as §1, §2
In these experiments, there was used a kit for Alkaline Phospha K-Test WAKO (available from WAKO Pure Chemical Co., Ltd.). A sample used was a suspension of cells obtained by cultivating the same in the presence of each test substance added. A substrate (150 μL) was added to 10 μL of each sample followed by heating at 37° C. for 15 minutes, the addition of 150 μL of a color-developing liquid and determination of the absorbance at 570 nm. The ALP activity corresponding to each absorbance thus measured was determined using a calibration curve prepared in advance.

Compound	Cell Growth Rate [1] [%]	Judged Efficacy (TRACP, t-test relative to the control) [2]	TRACP Act. [2] [KA-U/well]	ALP Act. [3] [KA-U/well]	Judged Efficacy (ALP, t-test relative to the control) [3]	Effect on proliferation of osteoblasts (in words) ([1]; compared with the control)
CC1=C(C/C=C(\C)CCC[C@H](C)CCC[C@H](C)CCCC(C)C)C(=O)c2ccccc2C1=O [Vitamin K1, reference compound]	69.3	◯ (The test substance shows an inhibitory effect (p < 0.05))	88.5 ± 8.1	76.1 ± 4.9	Δ	
Geranyl-Geranyl Docosahexaenoate	104.8	⊚ (The test substance shows a considerable inhibitory effect (p < 0.01))	18.5 ± 5.8	89.8 ± 6.1	⊚ (The test substance shows a considerable inhibitory effect (p < 0.01))	
CC(C)=CCC/C(C)=C/CC/C(C)=C/CC/C(C)=C/CC1=C(C)C(=O)c2ccccc2C1=O [Vitamin K2 (MK-4), reference compound]	32.4	⊚ (The test substance shows a considerable inhibitory effect (p < 0.01))	20.3 ± 4.1	78.6 ± 3.2	◯ (The test substance shows an inhibitory effect (p < 0.05))	reduces the rate of cell proliferation
CCCCC/C=C\C/C=C\C/C=C\CCCCC(=O)OC/C=C(\C)CC/C=C(\C)CC/C=C(\C)CCC=C(C)C [Geranyl-Geranyl γ-Linolenate]	111.4	⊚ (The test substance shows a considerable inhibitory effect (p < 0.01))	21.7 ± 4.9	84.4 ± 5.1	⊚ (The test substance shows a considerable inhibitory effect (p < 0.01))	
CCCCCCCC/C=C\CCCCCCCC(=O)OC/C=C(\C)CC/C=C(\C)CC/C=C(\C)CCC=C(C)C [Geranyl-geranyl oleate, Geranyl-Geranyl Oleate]	108.3	⊚ (The test substance shows a considerable inhibitory effect (p < 0.01))	16.8 ± 3.4	82.8 ± 6.7	◯ (The test substance shows an inhibitory effect (p < 0.05))	
CCC=CCC=CCC=CCC=CCC=CCCCC(=O)OCCC(C)CCCC(C)CCCC(C)CCCC(C)C (centres unmarked) [Dihydrophytyl Eicosapentaenoate]	118.9	◯ (The test substance shows an inhibitory effect (p < 0.05))	83.4 ± 9.4	118.7 ± 8.9	⊚ (The test substance shows a considerable inhibitory effect (p < 0.01))	
Farnesyl Eicosapentaenoate	115.6	Δ	96.9 ± 12.7	85.4 ± 8.4	◯ (The test substance shows an inhibitory effect (p < 0.05))	
Geranyl Eicosapentaenoate	121.4	Δ	87.4 ± 10.3	87.2 ± 10.6	◯ (The test substance shows an inhibitory effect (p < 0.05))	
CC1=CC(=O)c2ccccc2C1=O [Vitamin K3, reference compound]	0.0	◯ (The test substance shows an inhibitory effect (p < 0.05))	87.9 ± 10.2	91.2 ± 11.0	◯ (The test substance shows an inhibitory effect (p < 0.05))	
Phytyl Eicosapentaenoate	123.4	◯ (The test substance shows an inhibitory effect (p < 0.05))	84.2 ± 7.1	114.6 ± 7.7	⊚ (The test substance shows a considerable inhibitory effect (p < 0.01))	
Geranyl-Geranyl Conjugated Linoleate	120.1			88.3 ± 4.8	⊚ (The test substance shows a considerable inhibitory effect (p < 0.01))	
CCCCCCCCCCCCCCCCCC(=O)OC/C=C(\C)CC/C=C(\C)CC/C=C(\C)CCC=C(C)C [Geranyl-geranyl stearate, Geranyl-Geranyl Stearate]	102.9	⊚ (The test substance shows a considerable inhibitory effect (p < 0.01))	25.3 ± 5.2	80.1 ± 5.2	◯ (The test substance shows an inhibitory effect (p < 0.05))	
